According to ChEMBL document CHEMBL1201862, “PubChem BioAssay data set” (2004):
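Dose response: 5 concentrations. Exposure: 48 h. Format: 96-well plates. Endpoint: linear interpolation; highest concentration if not reached. Here, GI50 denotes the concentration required for 50% inhibition of growth.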 Activity calls are given as the source filed them. Cut-off read from the data, not from the text of the source: active = GI50 up to about 1.1 µM and inactive = higher.

Columns and labels:
Assay in all cases: NCI tumour cell line growth inhibition, 48 h
786-0 = tested on: 786-0
A498 = tested on: A498
A549 = tested on: A549
ACHN = tested on: ACHN
BT-549 = tested on: BT-549
CAKI-1 = tested on: CAKI-1
CCRF-CEM = tested on: CCRF-CEM
COLO 205 = tested on: COLO 205
DU-145 = tested on: DU-145
EKVX = tested on: EKVX
HCT-116 = tested on: HCT-116
HCT-15 = tested on: HCT-15
HL-60 = tested on: HL-60
HOP-62 = tested on: HOP-62
HOP-92 = tested on: HOP-92
HT-29 = tested on: HT-29
Hs-578T = tested on: Hs-578T
IGROV-1 = tested on: IGROV-1
K562 = tested on: K562
KM12 = tested on: KM12
LOX IMVI = tested on: LOX IMVI
M14 = tested on: M14
MCF7 = tested on: MCF7
MDA-MB-231 = tested on: MDA-MB-231
MDA-MB-435 = tested on: MDA-MB-435
MDA-N = tested on: MDA-N
MOLT-4 = tested on: MOLT-4
Malme-3M = tested on: Malme-3M
NCI-H226 = tested on: NCI-H226
NCI-H23 = tested on: NCI-H23
NCI-H460 = tested on: NCI-H460
NCI-H522 = tested on: NCI-H522
NCI/ADR-RES = tested on: NCI/ADR-RES
OVCAR-3 = tested on: OVCAR-3
OVCAR-4 = tested on: OVCAR-4
OVCAR-5 = tested on: OVCAR-5
OVCAR-8 = tested on: OVCAR-8
PC-3 = tested on: PC-3
RPMI-8226 = tested on: RPMI-8226
RXF 393 = tested on: RXF 393
SF-268 = tested on: SF-268
SF-295 = tested on: SF-295
SF-539 = tested on: SF-539
SK-MEL-28 = tested on: SK-MEL-28
SK-MEL-2 = tested on: SK-MEL-2
SK-MEL-5 = tested on: SK-MEL-5
SK-OV-3 = tested on: SK-OV-3
SN12C = tested on: SN12C
SNB-19 = tested on: SNB-19
SNB-75 = tested on: SNB-75
SR = tested on: SR
SW-620 = tested on: SW-620
T47D = tested on: T47D
TK-10 = tested on: TK-10
U-251 = tested on: U-251
UACC-257 = tested on: UACC-257
UACC-62 = tested on: UACC-62
UO-31 = tested on: UO-31
HCC 2998 = tested on: HCC 2998

How did the GI50 (786-0) turn out when C/C(=N\Nc1ccc2ccccc2n1)c1ccccc1O was run?
Its GI50 is > 37.3 µM (inactive).

What about the GI50 (A498) of the same compound?
Its GI50 is > 100 µM (inactive).

What about the GI50 (A549) of the same compound?
Its GI50 is > 100 µM (inactive).

What about the GI50 (ACHN) of the same compound?
The GI50 was > 100 µM (inactive).

What about the GI50 (BT-549) of the same compound?
Its GI50 is > 100 µM (inactive).

And the GI50 (CAKI-1)?
The GI50 was > 100 µM (inactive).

And the GI50 (CCRF-CEM)?
Its GI50 is 3.33 µM (inactive).

What about the GI50 (COLO 205) of the same compound?
The GI50 was > 100 µM (inactive).

And the GI50 (DU-145)?
Its GI50 is > 100 µM (inactive).

What about the GI50 (EKVX) of the same compound?
Its GI50 is 19.6 µM (inactive).

And the GI50 (HCT-116)?
Its GI50 is > 100 µM (inactive).

What about the GI50 (HCT-15) of the same compound?
The GI50 was 11.4 µM.

And the GI50 (HL-60)?
The GI50 was > 100 µM (inactive).

And the GI50 (HOP-62)?
Its GI50 is 14 µM (inactive).

What about the GI50 (HOP-92) of the same compound?
The GI50 was > 100 µM (inactive).

And the GI50 (HT-29)?
The GI50 was 8.15 µM (inactive).

What about the GI50 (Hs-578T) of the same compound?
The GI50 was > 83.2 µM (inactive).

And the GI50 (IGROV-1)?
Its GI50 is > 100 µM (inactive).

What about the GI50 (K562) of the same compound?
The GI50 was 7.38 µM (inactive).

What about the GI50 (KM12) of the same compound?
The GI50 was > 100 µM (inactive).

And the GI50 (LOX IMVI)?
Its GI50 is > 100 µM (inactive).

What about the GI50 (M14) of the same compound?
Its GI50 is > 100 µM (inactive).

What about the GI50 (MCF7) of the same compound?
Its GI50 is 5.31 µM (inactive).

And the GI50 (MDA-MB-231)?
The GI50 was > 83 µM (inactive).

And the GI50 (MDA-MB-435)?
The GI50 was > 100 µM (inactive).

What about the GI50 (MDA-N) of the same compound?
Its GI50 is > 100 µM (inactive).

What about the GI50 (MOLT-4) of the same compound?
Its GI50 is 4.69 µM (inactive).

What about the GI50 (Malme-3M) of the same compound?
The GI50 was > 100 µM (inactive).

What about the GI50 (NCI-H226) of the same compound?
Its GI50 is > 90.2 µM (inactive).

And the GI50 (NCI-H23)?
Its GI50 is > 100 µM (inactive).

What about the GI50 (NCI-H460) of the same compound?
Its GI50 is > 92.5 µM (inactive).

What about the GI50 (NCI-H522) of the same compound?
The GI50 was > 100 µM (inactive).

And the GI50 (NCI/ADR-RES)?
Its GI50 is > 37.5 µM (inactive).

What about the GI50 (OVCAR-3) of the same compound?
The GI50 was 2.13 µM (inactive).

What about the GI50 (OVCAR-4) of the same compound?
Its GI50 is > 100 µM (inactive).

What about the GI50 (OVCAR-5) of the same compound?
Its GI50 is > 100 µM (inactive).

And the GI50 (OVCAR-8)?
The GI50 was 56.1 µM (inactive).

And the GI50 (PC-3)?
The GI50 was > 100 µM (inactive).

And the GI50 (RPMI-8226)?
The GI50 was 7.23 µM (inactive).

And the GI50 (RXF 393)?
The GI50 was > 72.6 µM (inactive).

What about the GI50 (SF-268) of the same compound?
The GI50 was 24.5 µM (inactive).

What about the GI50 (SF-295) of the same compound?
The GI50 was 8.07 µM (inactive).

What about the GI50 (SF-539) of the same compound?
The GI50 was > 68.9 µM (inactive).

What about the GI50 (SK-MEL-28) of the same compound?
The GI50 was > 100 µM (inactive).

What about the GI50 (SK-MEL-2) of the same compound?
Its GI50 is > 100 µM (inactive).

What about the GI50 (SK-MEL-5) of the same compound?
The GI50 was > 100 µM (inactive).

What about the GI50 (SK-OV-3) of the same compound?
The GI50 was 29.8 µM (inactive).

What about the GI50 (SN12C) of the same compound?
The GI50 was > 100 µM (inactive).

What about the GI50 (SNB-19) of the same compound?
Its GI50 is > 63.8 µM (inactive).

What about the GI50 (SNB-75) of the same compound?
The GI50 was < 0.01 µM (active).

What about the GI50 (SR) of the same compound?
Its GI50 is 3.15 µM (inactive).

And the GI50 (SW-620)?
The GI50 was > 27.6 µM (inactive).

What about the GI50 (T47D) of the same compound?
The GI50 was 3.96 µM (inactive).

What about the GI50 (TK-10) of the same compound?
Its GI50 is > 86.3 µM (inactive).

And the GI50 (U-251)?
Its GI50 is 54.1 µM (inactive).

And the GI50 (UACC-257)?
Its GI50 is > 100 µM (inactive).

And the GI50 (UACC-62)?
The GI50 was > 100 µM (inactive).

What about the GI50 (UO-31) of the same compound?
Its GI50 is 70.8 µM (inactive).

Which results are given for Clc1c2ncccc2cc2nn[nH]c12?
GI50 (786-0): > 100 µM (inactive); GI50 (A498): > 100 µM (inactive); GI50 (A549): > 100 µM (inactive); GI50 (ACHN): > 100 µM (inactive); GI50 (BT-549): > 100 µM (inactive); GI50 (CAKI-1): > 100 µM (inactive); GI50 (CCRF-CEM): 17.3 µM (inactive); GI50 (COLO 205): > 100 µM (inactive); GI50 (DU-145): > 100 µM (inactive); GI50 (EKVX): > 100 µM (inactive); GI50 (HCC 2998): > 100 µM (inactive); GI50 (HCT-116): > 100 µM (inactive); GI50 (HCT-15): > 100 µM; GI50 (HL-60): 14.5 µM (inactive); GI50 (HOP-62): > 100 µM (inactive); GI50 (HOP-92): 54 µM (inactive); GI50 (HT-29): > 100 µM (inactive); GI50 (Hs-578T): 93.8 µM (inactive); GI50 (IGROV-1): 33 µM (inactive); GI50 (K562): > 100 µM (inactive); GI50 (KM12): > 100 µM (inactive); GI50 (M14): > 100 µM (inactive); GI50 (MCF7): > 100 µM (inactive); GI50 (MDA-MB-231): > 100 µM (inactive); GI50 (MDA-MB-435): > 100 µM (inactive); GI50 (MDA-N): > 100 µM (inactive); GI50 (MOLT-4): 15.8 µM (inactive); GI50 (Malme-3M): 79.3 µM (inactive); GI50 (NCI-H226): 21.3 µM (inactive); GI50 (NCI-H23): > 100 µM (inactive); GI50 (NCI-H460): 49.2 µM (inactive); GI50 (NCI-H522): 33 µM (inactive); GI50 (NCI/ADR-RES): > 100 µM (inactive); GI50 (OVCAR-3): > 100 µM (inactive); GI50 (OVCAR-4): > 100 µM (inactive); GI50 (OVCAR-5): 74.5 µM (inactive); GI50 (OVCAR-8): > 100 µM (inactive); GI50 (PC-3): > 100 µM (inactive); GI50 (RPMI-8226): > 100 µM (inactive); GI50 (RXF 393): > 100 µM (inactive); GI50 (SF-268): > 100 µM (inactive); GI50 (SF-295): 41 µM (inactive); GI50 (SF-539): > 100 µM (inactive); GI50 (SK-MEL-28): > 100 µM (inactive); GI50 (SK-MEL-2): > 100 µM (inactive); GI50 (SK-MEL-5): > 100 µM (inactive); GI50 (SK-OV-3): > 100 µM (inactive); GI50 (SN12C): > 100 µM (inactive); GI50 (SNB-19): > 100 µM (inactive); GI50 (SNB-75): 28.5 µM (inactive); GI50 (SR): 23.3 µM (inactive); GI50 (SW-620): > 100 µM (inactive); GI50 (T47D): > 100 µM (inactive); GI50 (TK-10): > 100 µM (inactive); GI50 (U-251): > 100 µM (inactive); GI50 (UACC-257): > 100 µM (inactive); GI50 (UACC-62): > 100 µM (inactive); GI50 (UO-31): 82.6 µM (inactive)
